Measurements taken from US4217357A, “Inhibition of thromboxane synthetase with 3-(imidazol-1-ylalkyl)indoles” (Pfizer Inc., priority 1978, dated 1980).
One block for each compound: values may come before it.

Columns and labels:
Assay type in all cases: biochemical
[1] = target: T1, prostacyclin synthetase (Sus scrofa, UniProt A0A5G2QT35); assay: Prostacyclin (PGI2) synthetase in vitro enzyme assay; settings: pig aorta microsomes, PGH2, 22° C., 30 seconds; 5 min pre-incubation; read-out: Concentration causing 50% inhibition of (3) prostacyclin synthetase
T1 construct: Pig aorta microsomes; from tissue; host or cells: pig aorta microsomes
T1 sequence (A0A5G2QT35 1-497): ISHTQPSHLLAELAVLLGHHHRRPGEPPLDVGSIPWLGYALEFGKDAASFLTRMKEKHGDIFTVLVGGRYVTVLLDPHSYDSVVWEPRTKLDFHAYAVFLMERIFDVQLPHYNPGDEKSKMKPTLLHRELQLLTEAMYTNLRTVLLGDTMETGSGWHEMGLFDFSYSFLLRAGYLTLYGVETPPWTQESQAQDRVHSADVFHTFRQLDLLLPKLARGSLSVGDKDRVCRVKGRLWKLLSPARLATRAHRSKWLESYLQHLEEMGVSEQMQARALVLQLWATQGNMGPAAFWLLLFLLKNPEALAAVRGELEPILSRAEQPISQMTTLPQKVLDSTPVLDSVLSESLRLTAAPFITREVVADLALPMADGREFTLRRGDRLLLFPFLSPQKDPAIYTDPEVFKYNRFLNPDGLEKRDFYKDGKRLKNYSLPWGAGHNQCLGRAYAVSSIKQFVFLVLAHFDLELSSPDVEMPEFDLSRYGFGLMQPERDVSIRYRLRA

[2] = target: T2, cyclo-oxygenase (Ovis aries, UniProt P05979); assay: Cyclo-oxygenase in vitro enzyme assay; settings: ram seminal vesicle microsomes, arachidonic acid 100 μM, 22° C., 1 min; 5 min pre-incubation; read-out: Concentration causing 50% inhibition of (2) cyclo-oxygenase
T2 construct: Ram seminal vesicle microsomes; from tissue; host or cells: ram seminal vesicle microsomes
T2 sequence (P05979 25-600): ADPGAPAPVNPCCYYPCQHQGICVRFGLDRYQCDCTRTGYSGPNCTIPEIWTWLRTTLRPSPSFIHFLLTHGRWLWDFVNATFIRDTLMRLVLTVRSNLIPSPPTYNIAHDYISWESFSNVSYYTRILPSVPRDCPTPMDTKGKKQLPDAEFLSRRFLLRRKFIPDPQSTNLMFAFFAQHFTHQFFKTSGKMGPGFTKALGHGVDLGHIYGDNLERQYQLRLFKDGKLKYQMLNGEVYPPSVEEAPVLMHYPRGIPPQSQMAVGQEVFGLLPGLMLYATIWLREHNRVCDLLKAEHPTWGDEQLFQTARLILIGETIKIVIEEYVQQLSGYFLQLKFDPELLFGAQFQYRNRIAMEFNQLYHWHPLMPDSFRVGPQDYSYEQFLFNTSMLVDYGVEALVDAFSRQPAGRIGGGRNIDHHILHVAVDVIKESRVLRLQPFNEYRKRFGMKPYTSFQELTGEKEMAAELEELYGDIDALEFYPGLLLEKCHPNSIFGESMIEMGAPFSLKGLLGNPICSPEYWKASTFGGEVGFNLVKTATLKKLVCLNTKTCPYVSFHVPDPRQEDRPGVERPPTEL
Protocol: The effect of the compounds of the formula (I) on the thromboxane synthetase enzyme, and the prostacyclin synthetase and cyclo-oxygenase enzymes has been measured by the following in vitro enzyme assay tests:
Ram seminal vesicle microsomes (Biochemistry, 1971, 10, 2372) are incubated with arachidonic acid (100 μM) at 22° C. for a period of one minute so as to produce PGH2, and aliquots of this reaction mixture are then injected into a stream of Krebs-bicarbonate at 37° C. [containing a mixture of antagonists (Nature, […], 218, 1135) and indomethacin (Brit. J. Pharmacol., 1972, 45, 451)] which is superfusing a spirally-cut rabbit aorta strip (Nature, 1969, 223, 29). The ability of a compound to inhibit the enzyme is measured by comparing the increases in isometric tension produced by PGH2 in the absence of the test compound and again, following pre-incubation of the enzyme with the test compound for a period of five minutes.

[3] = target: T3, thromboxane synthetase (Homo sapiens, UniProt P24557); assay: Thromboxane A2 (TxA2) synthetase in vitro enzyme assay; settings: for IC50: indomethacin-pretreated human platelet microsomes, PGH2, 0° C., 2 min, 5 min pre-incubation, read-out: Concentration causing 50% inhibition of (1) thromboxane synthetase; for Ratio of (3) to (1): prostacyclin synthetase / thromboxane synthetase 50% inhibition concentrations
T3 construct: Indomethacin-pretreated human platelet microsomes; from tissue; host or cells: human platelet microsomes
T3 sequence (P24557 1-533): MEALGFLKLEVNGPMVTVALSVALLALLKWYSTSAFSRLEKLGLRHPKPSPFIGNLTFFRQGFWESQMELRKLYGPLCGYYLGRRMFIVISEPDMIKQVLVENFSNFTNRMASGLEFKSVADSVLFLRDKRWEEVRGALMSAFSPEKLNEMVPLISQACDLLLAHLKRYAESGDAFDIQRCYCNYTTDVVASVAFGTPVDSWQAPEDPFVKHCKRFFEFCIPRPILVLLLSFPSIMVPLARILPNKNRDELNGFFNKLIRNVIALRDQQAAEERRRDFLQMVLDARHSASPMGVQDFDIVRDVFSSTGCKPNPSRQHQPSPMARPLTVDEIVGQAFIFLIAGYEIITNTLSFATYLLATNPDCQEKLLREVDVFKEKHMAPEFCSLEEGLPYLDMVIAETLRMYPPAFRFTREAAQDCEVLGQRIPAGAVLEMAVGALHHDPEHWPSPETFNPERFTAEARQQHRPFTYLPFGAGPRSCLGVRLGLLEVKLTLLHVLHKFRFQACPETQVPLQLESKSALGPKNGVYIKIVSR
Protocol: Indomethacin-pretreated human platelet microsomes (Science, 1976, 193, 163) are incubated with PGH2 (produced as described in test No. 1) at 0° C. for a period of two minutes, and aliquots of the reaction mixture are then superfused over two rabbit aorta spirals which are separated by a delay coil (2 min.). The latter is required in order to allow for the selective decay of the more unstable thromboxane A2 (Proc. Nat. Acad. Sci., 1975, 72, 2994), thereby enabling separate measurement of the increased isometric tension due to the TxA2 formed and the PGH2 remaining to take place. The test compound is then pre-incubated with the enzyme for a period of five minutes, and its ability to inhibit the thromboxane synthetase enzyme is measured as its reduction of the TxA2 component of the isometric tension.

SMILES: c1ccc2c(Cn3ccnc3)c[nH]c2c1 [*, 3-(imidazol-1-ylmethyl)-indole]
- IC50 [1]: 650 µM
- IC50 [2]: > 1000 µM
- IC50 [3]: 30 nM
- Ratio of (3) to (1) [3]: 22,000

SMILES: CC(C)c1[nH]c2ccccc2c1Cn1ccnc1 [Example I, 3-(imidazol-1-ylmethyl)-2-isopropylindole]
- IC50 [1]: > 100 µM
- IC50 [2]: > 100 µM
- IC50 [3]: 17 nM
- Ratio of (3) to (1) [3]: > 6,000

SMILES: CC(C)(C)c1[nH]c2ccccc2c1Cn1ccnc1 [Example VI, 3-(imidazol-1-ylmethyl)-2-tert-butylindole]
- IC50 [2]: > 100 µM

SMILES: CC(c1c[nH]c2ccccc12)n1ccnc1 (stereo not drawn) [Example VII, 3-[α-(imidazol-1-yl)ethyl]indole]
- IC50 [1]: > 100 µM
- IC50 [3]: 30 nM
- Ratio of (3) to (1) [3]: 3,300

SMILES: O=C(c1cccc(C(F)(F)F)c1)n1cc(Cn2ccnc2)c2ccccc21 [Example XLV, 3-(imidazol-1-ylmethyl)-1-(m-trifluoromethylbenzoyl)indole]
- IC50 [3]: 100 nM

SMILES: CC(=O)n1cc(Cn2ccnc2)c2ccccc21 [Example XLVI, 1-acetyl-3-(imidazol-1-ylmethyl)indole]
- IC50 [1]: 68 µM
- IC50 [3]: 1.2 nM
- Ratio of (3) to (1) [3]: 57,000

SMILES: Oc1ccc2[nH]cc(Cn3ccnc3)c2c1 [Example XLVII, 5-hydroxy-3-(imidazol-1-ylmethyl)-indole]
- IC50 [1]: 8 µM
- IC50 [3]: 2.3 nM
- Ratio of (3) to (1) [3]: 3,500

SMILES: c1ccc(COc2ccc3[nH]cc(Cn4ccnc4)c3c2)cc1 [Example XXV, 5-benzyloxy-3-(imidazol-1-ylmethyl)indole]
- IC50 [1]: 37 µM
- IC50 [3]: 260 nM
- Ratio of (3) to (1) [3]: 140

SMILES: Cc1ccc2[nH]cc(Cn3ccnc3)c2c1 [XI, 3-(imidazol-1-ylmethyl)-5-methylindole]
- IC50 [1]: 35 µM
- IC50 [3]: 58 nM
- Ratio of (3) to (1) [3]: 600

SMILES: c1ccc2c(Cn3ccnc3)c(C34CC5CC(CC(C5)C3)C4)[nH]c2c1 [XIV]
- IC50 [1]: 1 µM
- IC50 [3]: 2.5 nM
- Ratio of (3) to (1) [3]: 400

SMILES: COc1ccc(-c2[nH]c3ccccc3c2Cn2ccnc2)cc1 [XIX, 2-(p-anisyl)-3-(imidazol-1-ylmethyl)indole]
- IC50 [3]: 120 nM

SMILES: O=C(C1CC1)n1cc(Cn2ccnc2)c2ccccc21 [XLI, 1-cyclopropylcarbonyl-3-(imidazol-1-yl-methyl)indole]
- IC50 [3]: 4.3 nM

SMILES: Cc1ccc(C(=O)n2cc(Cn3ccnc3)c3ccccc32)cc1 [XLII, 3-(imidazol-1-ylmethyl)-1-(p-methylbenzoyl)indole]
- IC50 [1]: 20 µM
- IC50 [3]: 0.41 nM
- Ratio of (3) to (1) [3]: 49,000

SMILES: COc1ccc(C(=O)n2cc(Cn3ccnc3)c3ccccc32)cc1 [XLIII, 3-(imidazol-1-ylmethyl)-1-(p-methoxybenzoyl)indole]
- IC50 [1]: > 100 µM
- IC50 [3]: 1.7 nM
- Ratio of (3) to (1) [3]: > 60,000

SMILES: Cc1ccccc1-c1[nH]c2ccccc2c1Cn1ccnc1 [XV, 3-(imidazol-1-ylmethyl)-2-(o-tolyl)indole]
- IC50 [1]: 14 µM
- IC50 [3]: 0.014 nM
- Ratio of (3) to (1) [3]: 10^6

SMILES: COc1ccccc1-c1[nH]c2ccccc2c1Cn1ccnc1 [XVIII, 2-(o-anisyl)-3-(imidazol-1-ylmethyl)indole]
- IC50 [1]: 1.4 µM
- IC50 [3]: 0.38 nM
- Ratio of (3) to (1) [3]: 3,700

Continued, values first:

- IC50 [1]: > 100 µM
- IC50 [3]: 1 nM
- Ratio of (3) to (1) [3]: > 10^5
SMILES: c1ccc(Cc2[nH]c3ccccc3c2Cn2ccnc2)cc1 [XXII, 2-benzyl-3-(imidazol-1-ylmethyl)indole]

- IC50 [1]: > 100 µM
- IC50 [3]: 64 nM
- Ratio of (3) to (1) [3]: > 1,500
SMILES: CN(C)c1ccc2[nH]cc(Cn3ccnc3)c2c1 [XXIII, 5-dimethylamino-3-(imidazol-1-ylmethyl)indole]

- IC50 [1]: 100 µM
- IC50 [3]: 200 nM
- Ratio of (3) to (1) [3]: 500
SMILES: FC(F)(F)c1ccc2c(Cn3ccnc3)c[nH]c2c1 [XXIV, 3-(imidazol-1-ylmethyl)-6-trifluoromethylindole]

- IC50 [1]: > 100 µM
- IC50 [3]: 1.4 nM
- Ratio of (3) to (1) [3]: > 70,000
SMILES: CCn1cc(Cn2ccnc2)c2ccccc21 [XXIX, 1-ethyl-3-(imidazol-1-ylmethyl)indole]

- IC50 [1]: > 100 µM
- IC50 [3]: 110 nM
- Ratio of (3) to (1) [3]: > 900
SMILES: Clc1ccc(-c2[nH]c3ccccc3c2Cn2ccnc2)cc1 [XXI]

- IC50 [3]: 33 nM
SMILES: CC(c1cn(C)c2ccccc12)n1ccnc1 (stereo not drawn) [XXVIII, 3-[α-(imidazol-1-yl)ethyl]-1-methylindole]

- IC50 [1]: > 100 µM
- IC50 [3]: 4 nM
- Ratio of (3) to (1) [3]: > 2,500
SMILES: CCCn1cc(Cn2ccnc2)c2ccccc21 [XXX, 3-(imidazol-1-ylmethyl)-1-(n-propyl)indole]

- IC50 [1]: > 100 µM
- IC50 [3]: 0.058 nM
- Ratio of (3) to (1) [3]: > 1.7×10^6
SMILES: C=CCn1cc(Cn2ccnc2)c2ccccc21 [XXXI, 1-allyl-3-(imidazol-1-ylmethyl)indole]

- IC50 [3]: 36 nM
SMILES: C=CCn1cc(C(C)n2ccnc2)c2ccccc21 (stereo not drawn) [XXXII, 1-allyl-3-[α-(imidazol-1-yl)ethyl]indole]

- IC50 [1]: 18 µM
- IC50 [3]: 86 nM
- Ratio of (3) to (1) [3]: 210
SMILES: Clc1ccc(Cn2cc(Cn3ccnc3)c3ccccc32)cc1 [XXXIX, 1-(p-chlorobenzyl)-3-(imidazol-1-ylmethyl)indole]

- IC50 [1]: 1 µM
- IC50 [3]: 3.3 nM
- Ratio of (3) to (1) [3]: 300
SMILES: C=C(C)Cn1cc(Cn2ccnc2)c2ccccc21 [XXXV, 3-(imidazol-1-yl-methyl)-1-methallylindole]

- IC50 [1]: 100 µM
- IC50 [3]: 11 nM
- Ratio of (3) to (1) [3]: 9,000
SMILES: c1ccc2c(c1)c(Cn1ccnc1)cn2CC1CC1 [XXXVI, 1-cyclopropylmethyl-3-(imidazol-1-ylmethyl)indole]

- IC50 [1]: > 100 µM
- IC50 [3]: 45 nM
- Ratio of (3) to (1) [3]: > 2,200
SMILES: COCCn1cc(Cn2ccnc2)c2ccccc21 [XXXVII, 3-(imidazol-1-ylmethyl)-1-(β-methoxyethyl)indole]

- IC50 [1]: > 100 µM
- IC50 [3]: 26 nM
- Ratio of (3) to (1) [3]: > 3,800
SMILES: CN(C)CCn1cc(Cn2ccnc2)c2ccccc21 [XXXVIII, 1-(β-dimethylaminoethyl)-3-(imidazol-1-ylmethyl)indole]
